The results in this text go back to patent US20230000868A1, “USE OF 2-PHENYL-6-(1H-IMIDAZOL-1-YL) QUINAZOLINE FOR THE PREVENTION OF ABUSE AND OF SIDE EFFECTS OF AT LEAST ONE OPIOID” (ROTTAPHARM BIOTECH S.R.L., priority 2019, published 2023).

Each structure is given as a SMILES string. Entries after “also recorded” stand apart in the source; their conditions may differ. Where two headings read alike, the source gives them in different places.

Series [1] in a line: Opioid-induced constipation (faecal number 16 h after drug treatment). Here is the method:
The experiments were conducted according to the procedure described by Harada et al. (J. Pharmacol. Exp. Ther. 2017, 362: 78-84). Wistar rats were used in this model. Fecal excretion was evaluated at the end of the dark phase of the light/dark cycle, when most activities and feeding of albino rats take place. Drugs were administered 2 h before the dark phase of the light/dark cycle, and the feces were collected and counted 16 h after drug treatment. In this experimental paradigm, CR4056 1 or 6 mg/kg was administered orally 15 min before morphine or codeine. A full analgesic dose of morphine (10 mg/kg subcutaneous) or codeine (12 mg/kg oral) were administered 15 minutes after CR4056 or vehicle.

The nature of series [2]: Conditioned place preference (CPP). From the text: This test exploits the tendency of rats to associate the environment where they are located with the effect of drugs administered during a conditioning period. The experiment was done in a wooden apparatus consisting of two lateral chambers (30×25 cm, length×width) with different visual and tactile properties and a central “neutral” chamber, smaller than the others (12×25 cm, length×width) with total white floor and walls. The lateral chambers had different decoration of walls (points or stripes) and different type of floor (smooth or rough). These differences can be recognized by rats, and thus associated with the effect of drug or vehicle treatment. All walls were 38.5 cm high. Four days before the preconditioning phase, the light/dark cycle was inverted; all phases of experiments were performed during the dark phase. On the preconditioning day (day 1), Wistar rats (Charles River) were placed in the neutral chamber and for 15 min they were free to explore all the environments of the apparatus (van der Kam E. L. et al. Pain, 2008, 136:373-379). The time spent in each chamber was recorded with a video tracking software (Ethovision XT 13, Noldus information technology). Rats that spent over 60% of time in one of two lateral chambers were not admitted to the conditioning phase: for admitted animals, the “preferred” chamber was therefore the one where a rat spent between 50% and 60% of time during preconditioning (while the “unpreferred” chamber was the opposite one). After preconditioning, rats were randomly assigned to the experimental groups (n=16). A total of 256 rats were used in this model. During the 2 days of the conditioning phase rats were treated with the test drug(s) (day 2) or vehicle (day 3). On the first conditioning day rats were treated with the test drug(s) and were confined in the preconditioning unpreferred lateral chamber (now defined paired chamber), with no access to the other chambers of the apparatus for 40 min. On the second day of conditioning rats were treated with vehicle and were located in the opposite chamber (unpaired chamber). The control group received vehicle in both chambers. CR4056 or its vehicle were administered 40 min before conditioning, whereas morphine or its vehicle were administered immediately before conditioning. There was no treatment on the test day (day 4), when rats were placed in the neutral chamber with the possibility to explore all chambers of the apparatus. The time spent in each chamber was recorded.
CR4056 (1 mg/kg) and morphine (1 mg/kg) alone or in co-administration were administered every other day. After 8 days of conditioning the test day was held as described above.

Series [3] in a line: Open field test (distance travelled, sedation). The protocol:
The so-called open field test was used as a first model and the experiments were performed according to the procedure described by Haleem and Nawaz (Pain, 2017, 18:19-28). Drugs were administered 60 min (CR4056 or its vehicle, p.o.) and 30 min (morphine or its vehicle, s.c.) before the open field test. The video tracking was performed using the software Ethovision XT 13 (Noldus Information Technology), to assess the “distance travelled” as the primary parameter of sedation in this model. The test was performed every day after 4 days of repeated treatment.

A short description of a further series: Sedation rating scale. The format is in vivo, rat. The text has this: In addition, sedation was scored before each rotarod testing by the sedation rating scale. […] At each time point, a score from 0 (maximum sedation) to 5 (absent sedation) was assigned to each of the 8 parameters. The sum of the scores produced the total score.
Series [4] can be described thus: Inflammatory pain induced by complete Freund adjuvant (CFA). As to conditions: CR4056 1 mg/kg alone; FIG. 1, described as known effects. Type of series: in vivo, rat. The text has this: Previous art in the scientific literature describes that imidazoline I2 receptor agonists potentiate morphine-induced analgesia.
Setting [5] is: single administration, Morphine 1 mg/Kg.
[6] abbreviates: single administration, Morphine 2.5 mg/Kg.
[7] abbreviates: single administration, Morphine 5 mg/Kg.
Setting [8] is: morphine 1 mg/kg alone vs control rats.

Turning to `COc1ccc2c3c1O[C@H]1[C@@H](O)C=C[C@H]4[C@@H](C2)N(C)CC[C@@]341` [Codeine, codeine], the “defecation (faecal number)” value in series [1] (codeine 12 mg/kg oral, 16 h after treatment, vs vehicle or CR4056) is “significant decrease in defecation”.

With `CN1CC[C@]23c4c5ccc(O)c4O[C@H]2[C@@H](O)C=C[C@H]3[C@H]1C5` [Morphine, morphine], the “preference for the paired chamber” value in series [2] (acute administration, morphine 1 mg/kg) was “did not induce preference”; in series [2] (repeated conditionings, morphine 1 mg/kg alone), “induced preference”. The “preference for the paired chamber (time paired vs unpaired)” value in series [2] (acute administration, morphine 2.5 mg/kg) is recorded as “induced a statistically significant difference”; in series [2] (acute administration, morphine 5 mg/kg), “induced a statistically significant difference”. Further, the “%(P − U)” value in series [2] (repeated administrations, 8 days of conditioning, Morphine 1 mg/kg) is reported as “+14%”; in series [2] (setting [5]), 1.2%; in series [2] (setting [6]) it was 17.1%; in series [2] (setting [7]) it was 20.2%. Besides, the “Δ(P − U) ± ES” value was 95 ± 17 (*) in series [2] (repeated administrations, 8 days of conditioning, Morphine 1 mg/kg, (*) paired t-test < 0.05) and 7.6 ± 9.4 in series [2] (setting [5]). For the same compound, the “Seconds in Unpaired chamber (U)” value in series [2] (repeated administrations, every other day, 8 days of conditioning, Morphine 1 mg/kg) amounted to 295 s; in series [2] (setting [5]), 341 s; in series [2] (setting [6]) it was 291 s; in series [2] (setting [7]), 266 s. For the same compound, in series [1] (morphine 10 mg/kg subcutaneous, 16 h, P<0.05 vs vehicle), the faecal number entry is listed as “significant decrease in faecal number; also recorded: significantly reduced faecal count”. The “locomotor activity (sensitization)” value in series [3] (morphine 1-2.5 mg/kg, increased locomotor activity over 4 days of repeated treatment) is given as “modest sensitization”. Moreover, the “locomotor activity (sedation)” value in series [3] (morphine s.c. at doses higher than 5 mg/kg, 4 days of repeated treatment) is “clear sedative effect”; in series [3] (morphine s.c., lower doses (not higher than 5 mg/kg)), “not sedative”. The sedation scores entry is “no significant changes in performance” in “Sedation rating scale” (setting [8]) and “clearly sedative” in the series “Sedation rating scale” (morphine 10 mg/kg vs controls). The rotarod performance entry under setting [8] is given as “no significant changes in performance” and the rotarod performance entry (morphine 10 mg/kg vs controls) is listed as “clearly sedative”.

`c1ccc(-c2ncc3cc(-n4ccnc4)ccc3n2)cc1` [CR4056, 2-phenyl-6-(1H-imidazol-1-yl) quinazoline]: in series [2] (rat, in vivo, 6 mg/kg), the place preference result is “did not induce place preference”. Moreover, the analgesic effect entry in series [4] is given as “non-analgesic”. For the same compound, the “locomotor activity (sedation)” value in series [3] (in vivo, po, 1 mg/kg) was “not sedative per se”.
